From PMC9224258, “Zinc Coordination Compounds with Benzimidazole Derivatives: Synthesis, Structure, Antimicrobial Activity and Potential Anticancer Application” (International Journal of Molecular Sciences, 2022)
Converted amounts (≈) assume the structure as drawn. Read-outs that look alike come from different tables or passages of the source.

Experiments:
P. mirabilis ATCC 12453 = assay: micro-dilution broth MIC; format: cell-based, Proteus mirabilis
Experimental: (§1) The cytotoxic effect of the compounds was evaluated using glioblastoma (T98G), neuroblastoma (SK-N-AS) and lung adenocarcinoma (A549) cell lines and human normal skin fibroblasts (CCD-1059Sk). T98G and SK-N-AS cells were cultured in DMEM, high glucose; A549 cells were cultured in DMEM/F12; and CCD-1059Sk cells were cultured in MEM. All media were supplemented with 10% FBS, 100 U/mL of penicillin and […] of streptomycin (PenStrep). Cells were incubated at 37 °C in a humidified atmosphere of 5% CO2. Stock solutions were prepared by dissolving the compounds in sterile dimethyl sulfoxide (DMSO) to obtain the concentration of 50 mg/mL. The cells were seeded into 96-well sterile plates (Nunc) at a density of 1 × 10^5 cells/mL. After 24 h of incubation, the medium was removed from each well, and then cells were incubated for the next 24 h with different concentrations of the tested compounds (1–100 µg/mL) in respective medium containing 2% FBS. Cytotoxicity of the compounds was evaluated using the MTT assay, which is based on the conversion of 3-(4,5-dimethylthiazol-2-yl)-2,5-diphenyltetrazolium bromide (MTT) into dark-blue formazan crystals. Briefly, after 24 h incubation of cells with varying concentrations of the tested compounds, all culture media were removed from the plates. Cells were washed with PBS, and then 100 µL of medium containing 10% MTT solution (5 mg/mL) was added to each well. After 3 h incubation, 100 µL (per well) of 10% SDS buffer solution was added to solubilize formazan crystals. After overnight incubation, the absorbance was measured at 570 nm using a microplate reader (Epoch, BioTek Instruments). Experiments were repeated twice, and the measurements in each experiment were run in triplicate. The viability of the investigated cells was expressed as a percentage of the viability of the untreated cells, and the results were transformed into IC50 values (expressed as mean ± SD). […] The complexes were screened for antibacterial and antifungal activities by micro-dilution broth method using Mueller–Hinton broth for growth of bacteria or Mueller–Hinton broth with 2% glucose for growth of fungi. Minimal inhibitory concentrations (MICs) of the tested derivatives were evaluated for the panel of the reference microorganisms from the American Type Culture Collection (ATCC), including Gram-negative bacteria (Escherichia coli ATCC 25922, Salmonella Typhimurium ATCC14028, Klebsiella pneumoniae ATCC 13883, Pseudomonas aeruginosa ATCC 9027, Proteus mirabilis ATCC 12453), Gram-positive bacteria (Staphylococcus aureus ATCC 25923, Staphylococcus epidermidis ATCC 12228, Micrococcus luteus ATCC 10240, Enterococcus faecalis ATCC 29212, Bacillus subtilis ATCC 6633, Bacillus cereus ATCC 10876) and fungi (Candida albicans ATCC 10231, Candida parapsilosis ATCC 22019, C. glabrata ATCC 90030).

K. pneumoniae ATCC 13883 = assay: micro-dilution broth MIC; format: cell-based, Klebsiella pneumoniae
Experimental: as §1

[1] = test system: S. typhimurium ATCC 14028; assay: micro-dilution broth MIC; format: cell-based, Salmonella Typhimurium; settings: Gram-negative
Experimental: as §1

P. aeruginosa ATCC 9027 = assay: micro-dilution broth MIC; format: cell-based, Pseudomonas aeruginosa
Experimental: as §1

E. coli ATCC 25922 = assay: micro-dilution broth MIC; format: cell-based, Escherichia coli
Experimental: as §1

[2] = test system: S. epidermidis ATCC 12228; assay: micro-dilution broth MIC; format: cell-based, Staphylococcus epidermidis
Experimental: as §1

E. faecalis ATCC 29212 = assay: micro-dilution broth MIC; format: cell-based, Enterococcus faecalis
Experimental: as §1

B. cereus ATCC 10876 = assay: micro-dilution broth MIC; format: cell-based, Bacillus cereus
Experimental: as §1

B. subtilis ATCC 6633 = assay: micro-dilution broth MIC; format: cell-based, Bacillus subtilis
Experimental: as §1

M. luteus ATCC 10240 = assay: micro-dilution broth MIC; format: cell-based, Micrococcus luteus
Experimental: as §1

S. aureus ATCC 25923 = assay: micro-dilution broth MIC; format: cell-based, Staphylococcus aureus
Experimental: as §1

C. glabrata ATCC 2091 = assay: micro-dilution broth MIC; format: cell-based
[3] = test system: human normal skin fibroblasts (CCD-1059Sk); assay: MTT cytotoxicity assay, normal fibroblasts; format: cell-based; settings: MTT assay after 24 h incubation, normal cells; for IC50: Homo sapiens, CCD-1059Sk, read-out: IC50 ± SD, CCD-1059-Sk
Experimental: as §1

[4] = test system: glioblastoma (T98G) cell line; assay: MTT cytotoxicity assay, T98G; format: cell-based; settings: MTT assay after 24 h incubation; for IC50: Homo sapiens, T98G, read-out: IC50 ± SD, T98G
Experimental: as §1

[5] = test system: lung adenocarcinoma (A549) cell line; assay: MTT cytotoxicity assay, A549; format: cell-based, human; settings: MTT assay after 24 h incubation; for IC50: Homo sapiens, A549, read-out: IC50 ± SD, A549
Experimental: as §1

C. albicans ATCC 102231 = assay: micro-dilution broth MIC; format: cell-based, Candida albicans
Experimental: as §1

[6] = test system: neuroblastoma (SK-N-AS) cell line; assay: MTT cytotoxicity assay, SK-N-AS; format: cell-based, human; settings: MTT assay after 24 h incubation; for IC50: Homo sapiens, SK-N-AS, read-out: IC50 ± SD, SK-N-AS
Experimental: as §1

[7] = test system: C. parapsilosis ATCC 22019; assay: micro-dilution broth MIC; format: cell-based, Candida parapsilosis
Experimental: as §1

[8] = Proteus mirabilis, ATCC12453, Gram-negative, read-out: MIC
[9] = Klebsiella pneumoniae, ATCC13883, Gram-negative, read-out: MIC
[10] = Salmonella enterica, read-out: MIC
[11] = Pseudomonas aeruginosa, ATCC9027, Gram-negative, read-out: MIC
[12] = Escherichia coli, ATCC25922, Gram-negative, read-out: MIC
[13] = Nakaseomyces glabratus, ATCC2091, yeast, read-out: MIC
[14] = Staphylococcus epidermidis, ATCC12228, S. epidermidis ATCC 12228, Gram-positive, read-out: MIC
[15] = Enterococcus faecalis, ATCC29212, E. faecalis ATCC 29212, Gram-positive, read-out: MIC
[16] = Bacillus cereus, ATCC10876, B. cereus ATCC 10876, Gram-positive, read-out: MIC
[17] = Bacillus subtilis, ATCC6633, B. subtilis ATCC 6633, Gram-positive, read-out: MIC
[18] = Micrococcus luteus, ATCC10240, M. luteus ATCC 10240, Gram-positive, read-out: MIC
[19] = Staphylococcus aureus, ATCC25923, S. aureus ATCC 25923, Gram-positive, read-out: MIC
[20] = Candida albicans, ATCC102231, yeast, read-out: MIC
[21] = Lodderomyces parapsilosis, ATCC22019, yeast, read-out: MIC

Structure (SMILES)	MIC (P. mirabilis ATCC 12453; [8]) [µg/mL]	MIC (K. pneumoniae ATCC 13883; [9]) [µg/mL]	MIC [1, 10] [µg/mL]	MIC (P. aeruginosa ATCC 9027; [11]) [µg/mL]	MIC (E. coli ATCC 25922; [12]) [µg/mL]	MIC (C. glabrata ATCC 2091; [13]) [µg/mL]	MIC [2, 14] [µg/mL]	MIC (E. faecalis ATCC 29212; [15]) [µg/mL]	MIC (B. cereus ATCC 10876; [16]) [µg/mL]	MIC (B. subtilis ATCC 6633; [17]) [µg/mL]	MIC (M. luteus ATCC 10240; [18]) [µg/mL]	MIC (S. aureus ATCC 25923; [19]) [µg/mL]	MIC (C. albicans ATCC 102231; [20]) [µg/mL]	MIC [7, 21] [µg/mL]	IC50 [3] [µg/mL]	IC50 [4] [µg/mL]	IC50 [5] [µg/mL]	IC50 [6] [µg/mL]	further results
CN[C@H](CC(C)C)C(=O)N[C@H]1C(=O)N[C@@H](CC(N)=O)C(=O)N[C@H]2C(=O)N[C@H]3C(=O)N[C@H](C(=O)N[C@H](C(=O)O)c4cc(O)cc(O)c4-c4cc3ccc4O)[C@H](O)c3ccc(c(Cl)c3)Oc3cc2cc(c3O[C@@H]2O[C@H](CO)[C@@H](O)[C@H](O)[C@H]2O[C@H]2C[C@](C)(N)[C@H](O)[C@H](C)O2)Oc2ccc(cc2Cl)[C@H]1O [Van, Vancomycin, reference compound]																			MIC ([2]; Staphylococcus epidermidis, ATCC12228): 0.98 µg/mL (≈ 0.676 µM); MIC (E. faecalis ATCC 29212; Enterococcus faecalis, ATCC29212): 1.95 µg/mL (≈ 1.35 µM); MIC (B. cereus ATCC 10876; Bacillus cereus, ATCC10876): 0.98 µg/mL (≈ 0.676 µM); MIC (B. subtilis ATCC 6633; Bacillus subtilis, ATCC6633): 0.24 µg/mL (≈ 0.166 µM); MIC (M. luteus ATCC 10240; Micrococcus luteus, ATCC10240): 0.12 µg/mL (≈ 0.0828 µM); MIC (S. aureus ATCC 25923; Staphylococcus aureus, ATCC25923): 0.98 µg/mL (≈ 0.676 µM)
[Cl][Zn][Cl].[Cl][Zn][Cl].c1cnc2[nH]c(-c3ccncc3)nc2c1.c1cnc2[nH]c(-c3ccncc3)nc2c1 [Complex C2]																			MIC (C. glabrata ATCC 2091; yeast): >1000 µg/mL; MIC ([2]; S. epidermidis ATCC 12228, Gram-positive): 500 µg/mL; MIC (P. mirabilis ATCC 12453; Gram-negative): 1000 µg/mL; MIC (K. pneumoniae ATCC 13883; Gram-negative): 1000 µg/mL; MIC (E. faecalis ATCC 29212; E. faecalis ATCC 29212, Gram-positive): 1000 µg/mL; MIC [1]: 1000 µg/mL; IC50 ± SD, CCD-1059-Sk [3]: 27.27 ± 1.05 µg/mL; MIC (B. cereus ATCC 10876; B. cereus ATCC 10876, Gram-positive): 500 µg/mL; MIC (B. subtilis ATCC 6633; B. subtilis ATCC 6633, Gram-positive): 500 µg/mL; MIC (P. aeruginosa ATCC 9027; Gram-negative): >1000 µg/mL; MIC (M. luteus ATCC 10240; M. luteus ATCC 10240, Gram-positive): 250 µg/mL; MIC (S. aureus ATCC 25923; S. aureus ATCC 25923, Gram-positive): 500 µg/mL; IC50 ± SD, T98G [4]: 24.29 ± 0.11 µg/mL; IC50 ± SD, A549 [5]: 34.44 ± 0.75 µg/mL; MIC (C. albicans ATCC 102231; yeast): 1000 µg/mL; MIC (E. coli ATCC 25922; Gram-negative): 1000 µg/mL; IC50 ± SD, SK-N-AS [6]: 33.72 ± 0.39 µg/mL; MIC ([7]; yeast): >1000 µg/mL

Further lines, with some results ahead:

MIC (P. mirabilis ATCC 12453; [8]) [µg/mL]	MIC (K. pneumoniae ATCC 13883; [9]) [µg/mL]	MIC [1, 10] [µg/mL]	MIC (P. aeruginosa ATCC 9027; [11]) [µg/mL]	MIC (E. coli ATCC 25922; [12]) [µg/mL]	MIC (C. glabrata ATCC 2091; [13]) [µg/mL]	MIC [2, 14] [µg/mL]	MIC (E. faecalis ATCC 29212; [15]) [µg/mL]	MIC (B. cereus ATCC 10876; [16]) [µg/mL]	MIC (B. subtilis ATCC 6633; [17]) [µg/mL]	MIC (M. luteus ATCC 10240; [18]) [µg/mL]	MIC (S. aureus ATCC 25923; [19]) [µg/mL]	MIC (C. albicans ATCC 102231; [20]) [µg/mL]	MIC [7, 21] [µg/mL]	Structure (SMILES)	IC50 [3] [µg/mL]	IC50 [4] [µg/mL]	IC50 [5] [µg/mL]	IC50 [6] [µg/mL]	further results
0.03 (≈ 0.0905 µM)	0.12 (≈ 0.362 µM)	0.061 (≈ 0.184 µM)	0.49 (≈ 1.48 µM)	0.015 (≈ 0.0453 µM)										O=C(O)c1cn(C2CC2)c2cc(N3CCNCC3)c(F)cc2c1=O [Cip, ciprofloxacin, reference compound]					
> 1000	> 1000	> 1000	> 1000	> 1000	> 1000	1000	1000	1000	1000	> 1000	> 1000	500	1000	Brc1cnc2[nH]c(-c3cccnc3)nc2c1 [Complex L4]	> 100	> 100	> 100	> 100	
> 1000	> 1000	> 1000	> 1000	> 1000	> 1000	> 1000	> 1000	> 1000	> 1000	500	> 1000	> 1000	> 1000	c1cc(-c2nc3ccncc3[nH]2)ccn1 [Complex L1]	> 100	41.2 ± 2.3	> 100	> 100	
